The results in this text go back to patent US20120165331A1, “Di/tri-aza-spiro-C9-C11alkanes” (priority 2010, published 2012).

The term Kd denotes the constant that tells how readily two partners part at equilibrium. Broadly, the Ki is a measure of affinity in units of concentration, obtained from inhibition or displacement.

Assay [1] addresses T1, human orexin 1 receptor (Homo sapiens, UniProt O43613).
T1 construct: expressed in transfected cells
T1 sequence (O43613 1-425): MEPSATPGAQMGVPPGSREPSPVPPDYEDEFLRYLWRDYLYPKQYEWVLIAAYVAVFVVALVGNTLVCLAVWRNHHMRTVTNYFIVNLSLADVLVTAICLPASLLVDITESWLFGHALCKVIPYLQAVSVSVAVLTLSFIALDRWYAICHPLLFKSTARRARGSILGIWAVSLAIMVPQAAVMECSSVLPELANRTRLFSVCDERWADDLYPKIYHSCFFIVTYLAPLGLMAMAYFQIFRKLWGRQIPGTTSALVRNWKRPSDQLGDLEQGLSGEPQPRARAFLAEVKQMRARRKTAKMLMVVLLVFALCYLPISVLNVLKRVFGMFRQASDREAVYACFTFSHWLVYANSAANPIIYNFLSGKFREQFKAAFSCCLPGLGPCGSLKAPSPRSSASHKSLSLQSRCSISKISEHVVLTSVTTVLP
In words: Radioligand binding assay ([3H]-SB649868 competition), human orexin 1 receptor. Conditions: radioligand [3H]-SB649868; read-out: Binding hOx1R Kd. The method, boiled down:
(§1)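 Competition binding against roughly 1 nM [3H]-SB649868, run in triplicate for 1 h at room temperature on CHO or HEK membranes bearing human receptor (10 mM HEPES pH 7.5, 0.5% BSA, 5 mM MgCl2, 1 mM CaCl2, 0.05% tween). Bound radioactivity after vacuum filtration; almorexant 10 μM for non-specific binding; expressed as Kd.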

Assay [2] has as its target T2, human orexin 2 receptor (Homo sapiens, UniProt O43614).
T2 construct: expressed in transfected cells
T2 sequence (O43614 1-444): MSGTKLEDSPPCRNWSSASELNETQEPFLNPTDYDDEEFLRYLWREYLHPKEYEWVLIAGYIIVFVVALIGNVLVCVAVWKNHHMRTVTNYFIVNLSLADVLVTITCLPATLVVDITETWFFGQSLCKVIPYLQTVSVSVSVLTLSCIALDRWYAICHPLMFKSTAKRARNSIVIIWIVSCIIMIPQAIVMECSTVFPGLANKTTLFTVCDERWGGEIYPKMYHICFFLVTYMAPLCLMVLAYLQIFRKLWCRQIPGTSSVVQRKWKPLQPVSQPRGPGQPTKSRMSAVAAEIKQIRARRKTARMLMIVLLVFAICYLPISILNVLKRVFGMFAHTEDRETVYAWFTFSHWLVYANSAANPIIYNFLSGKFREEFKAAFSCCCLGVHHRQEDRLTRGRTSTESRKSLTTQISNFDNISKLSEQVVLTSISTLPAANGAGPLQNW
In words: Radioligand binding assay ([3H]-SB649868 competition), human orexin 2 receptor. Conditions: radioligand [3H]-SB649868; read-out: Binding hOx2R Kd. The gist of the method: as §1

The target of assay [3] is T1, human orexin 1 receptor. In words: Calcium accumulation in cells (FLIPR), antagonism of orexin A, human orexin 1 receptor. It counts as cell-based. As to conditions: calcium accumulation, antagonism of orexin A, Cheng-Prusoff corrected; read-out: FLIPR hOx1R Ki.
For assay [4], the target named is T2, human orexin 2 receptor. In words: Calcium accumulation in cells (FLIPR), antagonism of orexin A, human orexin 2 receptor. It counts as cell-based. As to conditions: calcium accumulation, antagonism of orexin A, Cheng-Prusoff corrected; read-out: FLIPR hOx2R Ki.

Take `Cc1cc(C)nc(N2CCC3(CC2)NCCN(Cc2nn(C)cc2-c2cccc(OC4CC4)c2)C3=O)n1` [Example 1.62, 4-((4-(3-Cyclo-propoxyphenyl)-1-methyl-1H-pyrazol-3-yl)methyl)-9-(4,6-dimethyl-pyrimidin-2-yl)-1,4,9-triazaspiro[5.5] undecan-5-one]: the Kd in assay [1] came to 142 nM; in assay [2], 8 nM. Besides, the figures for the Ki in assay [3] and in assay [4] were 163 nM and 1 nM, respectively.
The corresponding values for `COc1cc(C)nc(N2CCC3(CC2)NCCN(Cc2n[nH]c4ccccc24)C3=O)n1` [Example 1.65, 4-((1H-indazol-3-yl)methyl)-9-(4-methoxy-6-methyl-pyrimidin-2-yl)-1,4,9-triazaspiro[5.5] undecan-5-one] are 1160 nM, 58 nM, 1580 nM and 21 nM.
In the case of `CCc1cccc(-c2cn(C)nc2CN2CCNC3(CCN(c4nc(C)cc(C)n4)CC3)C2=O)c1` [Example 1.67, 9-(4,6-dimethyl-pyrimidin-2-yl)-4-((4-(3-ethyl-phenyl)-1-methyl-1H-pyrazol-3-yl)methyl)-1,4,9-triazaspiro[5.5] undecan-5-one], the Kd was 1770 nM in assay [1] and 50 nM in assay [2]. Further, the Ki in assay [3] was 1140 nM; in assay [4], 5 nM.
The corresponding values for `Cc1cc(C)nc(N2CCC3(CC2)NCCN(Cc2nn(C)cc2-c2cccc(C(C)C)c2)C3=O)n1` [Example 1.68, 9-(4,6-dimethyl-pyrimidin-2-yl)-4-((4-(3-isopropyl-phenyl)-1-methyl-1H-pyrazol-3-yl)methyl)-1,4,9-triazaspiro[5.5] undecan-5-one] are 1440 nM, 13 nM, 945 nM and 4 nM.
In the case of `CCC(=O)c1cccc(-c2cn(C)nc2CN2CCNC3(CCN(c4nc(C)cc(C)n4)CC3)C2=O)c1` [Example 1.70, 9-(4,6-dimethyl-pyrimidin-2-yl)-4-((1-methyl-4-(3-propionylphenyl)-1H-pyrazol-3-yl)methyl)-1,4,9-triazaspiro[5.5] undecan-5-one], the figures for the Kd in assay [1] and in assay [2] were 465 nM and 21 nM, respectively. Moreover, the figures for the Ki in assay [3] and in assay [4] were 856 nM and 2 nM, respectively.
Regarding `Cc1cc(C)nc(N2CCC3(CC2)NCCN(Cc2nn(C)cc2-c2cccc(C(F)F)c2)C3=O)n1` [Example 1.71, 4-((4-(3-(difluoromethyl)phenyl)-1-methyl-1H-pyrazol-3-yl)methyl)-9-(4,6-dimethylpyrimidin-2-yl)-1,4,9-triazaspiro[5.5] undecan-5-one], the Kd in assay [1] amounted to 1700 nM; in assay [2] it was 227 nM. Besides, the inhibitory constant (Ki) in assay [3] came to 2060 nM; in assay [4] it was 30 nM.
Taken in the same sequence, the figures for `Cc1cc(C)nc(N2CCC3(CC2)NCCN(Cc2nn(C)cc2-c2cccc(OCCOC(C)C)c2)C3=O)n1` [Example 1.72, 9-(4,6-dimethyl-pyrimidin-2-yl)-4-((4-(3-(2-iso-propoxyethoxy)phenyl)-1-methyl-1H-pyrazol-3-yl)methyl)-1,4,9-triazaspiro[5.5] undecan-5-one] were 846 nM, 203 nM, 1590 nM and 49 nM.
`Cc1cc(C)nc(N2CCC3(CC2)NCCN(Cc2nn(C)cc2-c2cccc(N4CCOCC4)c2)C3=O)n1` [Example 1.73, 9-(4,6-dimethyl-pyrimidin-2-yl)-4-((1-methyl-4-(3-morpholinophenyl)-1H-pyrazol-3-yl)methyl)-1,4,9-triazaspiro[5.5] undecan-5-one]: the Kd was 1380 nM in assay [1] and 163 nM in assay [2]. The Ki in assay [3] was 862 nM; in assay [4], 20 nM.
Consider `COc1cc(-c2nn(C)nc2CN2CCNC3(CCN(c4nc(C)cc(C)n4)CC3)C2=O)ccn1` [Example 1.74, 9-(4,6-dimethyl-pyrimidin-2-yl)-4-((5-(2-methoxy-pyridin-4-yl)-2-methyl-2H-1,2,3-triazol-4-yl)methyl)-1,4,9-triazaspiro[5.5] undecan-5-one], for which the dissociation constant Kd in assay [1] was determined as 2500 nM; in assay [2], 127 nM. Also, the inhibition constant (Ki) was 4270 nM in assay [3] and 48 nM in assay [4].
For `Cc1cc(C)nc(N2CCC3(CC2)NCCN(Cc2nn(C)nc2-c2cccc(N4CCOCC4)c2)C3=O)n1` [Example 1.77], the Kd in assay [1] came to 2840 nM; in assay [2], 225 nM. In addition, the Ki in assay [3] is 2880 nM; in assay [4] it was 56 nM.
Consider `COCCOc1cccc(-c2nn(C)nc2CN2CCNC3(CCN(c4nc(C)cc(C)n4)CC3)C2=O)c1` [Example 1.78, 9-(4,6-dimethyl-pyrimidin-2-yl)-4-((5-(3-(2-methoxyethoxy)phenyl)-2-methyl-2H-1,2,3-triazol-4-yl)methyl)-1,4,9-triazaspiro[5.5] undecan-5-one], for which the Kd is 709 nM in assay [1] and 28 nM in assay [2]. The Ki in assay [3] was 1870 nM; in assay [4], 9 nM.
`Cc1cc(C)nc(N2CCC3(CC2)NCCN(Cc2nn(C)nc2-c2cccc(OC(C)C)c2)C3=O)n1` [Example 1.79, 9-(4,6-dimethyl-pyrimidin-2-yl)-4-((5-(3-isopropoxy-phenyl)-2-methyl-2H-1,2,3-triazol-4-yl)methyl)-1,4,9-triazaspiro[5.5] undecan-5-one]: the Kd is 535 nM in assay [1] and 22 nM in assay [2]. The results for the Ki in assay [3] and in assay [4] were 166 nM and 3.7 nM, respectively.
As to `Cc1cc(C)nc(N2CCC3(CC2)NCCN(Cc2nn(C)nc2-c2ccc4c(c2)OCCO4)C3=O)n1` [Example 1.80, 4-((5-(2,3-dihydro-benzo[b][1,4]dioxin-6-yl)-2-methyl-2H-1,2,3-triazol-4-yl)methyl)-9-(4,6-dimethylpyrimidin-2-yl)-1,4,9-triazaspiro[5.5] undecan-5-one], the Kd is 860 nM in assay [1] and 27 nM in assay [2]. The Ki was determined as 501 nM in assay [3] and 4.3 nM in assay [4].
`Cc1cc(C)nc(N2CCC3(CC2)OCCN(Cc2c[nH]c4ccccc24)C3=O)n1` [Example 2.1, 4-((1H-indol-3-yl)methyl)-9-(4,6-dimethylpyrimidin-2-yl)-1-oxa-4,9-diazaspiro[5.5]undecan-5-one]: the Kd in assay [1] came out at 1320 nM; in assay [2], 31 nM. For the same compound, the Ki in assay [3] was determined as 1700 nM; in assay [4] it was 29 nM.
Regarding `Cc1cc(C)nc(N2CCC3(CC2)OCCN(Cc2n[nH]c4ccccc24)C3=O)n1` [Example 2.2, 9-(4,6-Dimethyl-pyrimidin-2-yl)-4-(1H-indazol-3-ylmethyl)-1-oxa-4,9-diaza-spiro[5.5]undecan-5-one], the Kd worked out at 1840 nM in assay [1] and 71 nM in assay [2]. Further, the inhibition constant Ki stood at 1800 nM in assay [3] and 55 nM in assay [4].
Taken in the same sequence, the figures for `Cc1cc(C)nc(N2CCC3(CC2)OCCN(Cc2c[nH]c4ccc(F)cc24)C3=O)n1` [Example 2.6, 9-(4,6-Dimethylpyrimidin-2-yl)-4-((5-fluoro-1H-indol-3-yl)methyl)-1-oxa-4,9-diazaspiro[5.5]undecan-5-one] were 1060 nM, 26 nM, 1060 nM and 13 nM.
With `COc1ccc2[nH]cc(CN3CCOC4(CCN(c5nc(C)cc(C)n5)CC4)C3=O)c2c1` [Example 2.7, 9-(4,6-Dimethylpyrimidin-2-yl)-4-((5-methoxy-1H-indol-3-yl)methyl)-1-oxa-4,9-diazaspiro[5.5]undecan-5-one], the Kd amounted to 213 nM in assay [1] and 6 nM in assay [2]. For the same compound, the results for the Ki in assay [3] and in assay [4] were 258 nM and 1 nM, respectively.
Take `Cc1ccnc(N2CCC3(CC2)OCCN(Cc2c[nH]c4ccccc24)C3=O)n1` [Example 2.8, 4-((1H-Indol-3-yl)methyl)-9-(4-methylpyrimidin-2-yl)-1-oxa-4,9-diazaspiro[5.5]undecan-5-one]: the Kd in assay [1] is 5610 nM; in assay [2] it was 78 nM. Further, the inhibition constant Ki in assay [3] is 2460 nM; in assay [4], 105 nM.
